Test results published in the supplement of paper PMC10307832.

Assays:
Test in all cases: relative viability (nuclei count vs DMSO), 5 days (fraction); higher = more cells survive
[1] = test system: NCI-H1793; details: first compound 4 µM
How it was run: (§1)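 Relative viability equals treated-well nuclei counts divided by vehicle-well nuclei counts. Counts came from 4× images of lung cancer cell lines grown in 1536-well plates for 5 days after pin-tool dosing on the day after seeding. Dosing used one drug alone or a fixed anchor-drug dose plus five library-drug doses (not always all listed) in √10 steps, and values are medians of duplicate plates.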

[2] = test system: LCLC-97TM1
How it was run: as §1

[3] = test system: CAL-12T
How it was run: as §1

[4] = test system: NCI-H1395
How it was run: as §1

[5] = test system: LXF-289
How it was run: as §1

[6] = test system: HCC-827
How it was run: as §1

[7] = test system: HCC-44
How it was run: as §1

[8] = test system: NCI-H1437
How it was run: as §1

[9] = test system: NCI-H647
How it was run: as §1

[10] = test system: NCI-H2228
How it was run: as §1

[11] = test system: NCI-H1650
How it was run: as §1

[12] = test system: LCLC-103H
How it was run: as §1

[13] = test system: 201T
How it was run: as §1

With `C[C@@H]1CN(CC(=O)Nc2ccc3c(c2)Cc2cccc(-c4cc(=O)cc(N5CCOCC5)o4)c2S3)C[C@H](C)O1` + CC(=O)c1c(C)c2cnc(Nc3ccc(N4CCNCC4)cn3)nc2n(C2CCCC2)c1=O [Palbociclib] (partner 0.5 µM) the relative viability [1] was 0.2, the relative viability ([2]; first compound 0.1265 µM) was 0.25 and the relative viability ([2]; first compound 0.4 µM) was 0.206. The relative viability ([2]; first compound 4 µM) was 0.246, the relative viability ([3]; first compound 0.04 µM) was 0.53 and the relative viability ([3]; first compound 0.1265 µM) was 0.411. For the same molecule, the relative viability ([3]; first compound 0.4 µM) was 0.44, the relative viability ([3]; first compound 4 µM) was 0.28 and the relative viability ([4]; first compound 0.1265 µM) was 0.626. It also gave a relative viability ([4]; first compound 0.4 µM) of 0.575, a relative viability ([4]; first compound 4 µM) of 0.595 and a relative viability ([5]; first compound 0.04 µM) of 0.616. The relative viability ([5]; first compound 0.1265 µM) was 0.617, the relative viability ([5]; first compound 0.4 µM) was 0.613 and the relative viability ([5]; first compound 4 µM) was 0.549. The relative viability ([6]; first compound 0.04 µM) was 0.502, the relative viability ([6]; first compound 0.1265 µM) was 0.49 and the relative viability ([6]; first compound 0.4 µM) was 0.433. The relative viability ([6]; first compound 4 µM) was 0.442, the relative viability ([7]; first compound 0.04 µM) was 0.917 and the relative viability ([7]; first compound 0.1265 µM) was 0.965. For the same molecule, the relative viability ([7]; first compound 0.4 µM) was 0.929, the relative viability ([7]; first compound 4 µM) was 0.919 and the relative viability ([8]; first compound 0.04 µM) was 0.309. For the same molecule, the relative viability ([8]; first compound 0.1265 µM) was 0.282, the relative viability ([8]; first compound 0.4 µM) was 0.327 and the relative viability ([8]; first compound 4 µM) was 0.255. It also gave a relative viability ([9]; first compound 0.04 µM) of 0.376, a relative viability ([9]; first compound 0.1265 µM) of 0.336 and a relative viability ([9]; first compound 0.4 µM) of 0.444. It also gave a relative viability ([9]; first compound 4 µM) of 0.273, a relative viability ([10]; first compound 0.04 µM) of 0.993 and a relative viability ([10]; first compound 0.1265 µM) of 0.743. For the same molecule, the relative viability ([10]; first compound 0.4 µM) was 0.916, the relative viability ([10]; first compound 4 µM) was 0.605 and the relative viability ([11]; first compound 0.04 µM) was 0.376. The relative viability ([11]; first compound 0.1265 µM) was 0.397, the relative viability ([11]; first compound 0.4 µM) was 0.285 and the relative viability ([11]; first compound 4 µM) was 0.262. The relative viability ([12]; first compound 0.04 µM) was 0.441, the relative viability ([12]; first compound 0.1265 µM) was 0.47 and the relative viability ([12]; first compound 0.4 µM) was 0.446. For the same molecule, the relative viability ([12]; first compound 4 µM) was 0.47, the relative viability ([13]; first compound 0.04 µM) was 0.345 and the relative viability ([13]; first compound 0.1265 µM) was 0.35. The relative viability ([13]; first compound 0.4 µM) was 0.361 and the relative viability ([13]; first compound 4 µM) was 0.336.
